# Measurements from ChEMBL document CHEMBL1201862, “PubChem BioAssay data set” (2004).
#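 Exposure lasted 48 hours, with cells grown in 96-well plates and compounds tested at five concentrations. Abbreviation: GI50, concentration required for 50% inhibition of growth.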 Active and inactive are the calls of the source. Rule as the data show it: active = GI50 up to about 1.1 µM and inactive = higher.
# Experiments:
# Test in all cases: inhibition of tumour cell growth, NCI panel, 48 h
# UACC-62 = system: UACC-62
# KM12 = system: KM12
# U-251 = system: U-251
# SR = system: SR
# Hs-578T = system: Hs-578T
# SK-OV-3 = system: SK-OV-3
# CAKI-1 = system: CAKI-1
# TK-10 = system: TK-10
# SF-268 = system: SF-268
# EKVX = system: EKVX
# NCI-H23 = system: NCI-H23
# OVCAR-3 = system: OVCAR-3
# HCT-116 = system: HCT-116
# MCF7 = system: MCF7
# NCI-H226 = system: NCI-H226
# SF-295 = system: SF-295
# HL-60 = system: HL-60
# CCRF-CEM = system: CCRF-CEM
# ACHN = system: ACHN
# SK-MEL-28 = system: SK-MEL-28
SMILES,GI50 (UACC-62),GI50 (KM12),GI50 (U-251),GI50 (SR),GI50 (Hs-578T),GI50 (SK-OV-3),GI50 (CAKI-1),GI50 (TK-10),GI50 (SF-268),GI50 (EKVX),GI50 (NCI-H23),GI50 (OVCAR-3),GI50 (HCT-116),GI50 (MCF7),GI50 (NCI-H226),GI50 (SF-295),GI50 (HL-60),GI50 (CCRF-CEM),GI50 (ACHN),GI50 (SK-MEL-28)
CCCCCCCc1c(Cl)nc(Cl)nc1Cl,5.82 µM (inactive),11.2 µM (inactive),4.89 µM (inactive),0.604 µM (active),6.28 µM (inactive),7.43 µM (inactive),2.38 µM (inactive),13.6 µM (inactive),4.66 µM (inactive),8.77 µM (inactive),3.72 µM (inactive),6.35 µM (inactive),2.63 µM (inactive),10.4 µM (inactive),2.04 µM (inactive),16.9 µM (inactive),2.45 µM (inactive),0.494 µM (active),8.61 µM (inactive),7.11 µM (inactive)
COc1cc2c(cc1OC)C(SC)C(=O)N(Cc1cccc(OC)c1OC)CC2 (stereo not given),0.731 µM (active),2.65 µM (inactive),2.02 µM (inactive),0.912 µM (active),2.66 µM (inactive),2.54 µM (inactive),13.6 µM (inactive),5.62 µM (inactive),4.67 µM (inactive),4.7 µM (inactive),2.25 µM (inactive),0.798 µM (active),1.92 µM (inactive),0.746 µM (active),3.21 µM (inactive),0.63 µM (active),0.411 µM (active),3.61 µM (inactive),5.04 µM (inactive),1.99 µM (inactive)
O=c1[nH]nc(Cc2ccc(Cl)cc2)n1O,> 100 µM (inactive),> 100 µM (inactive),> 100 µM (inactive),> 100 µM (inactive),> 100 µM (inactive),> 100 µM (inactive),> 100 µM (inactive),> 100 µM (inactive),> 100 µM (inactive),> 100 µM (inactive),> 100 µM (inactive),> 100 µM (inactive),> 100 µM (inactive),> 100 µM (inactive),> 100 µM (inactive),> 100 µM (inactive),> 100 µM (inactive),> 100 µM (inactive),> 100 µM (inactive),> 100 µM (inactive)
Nc1nc(Cl)c(N)c(NCC2(CO)CC(O)C2)n1 (stereo not given),> 100 µM (inactive),> 100 µM (inactive),> 100 µM (inactive),> 100 µM (inactive),> 100 µM (inactive),> 100 µM (inactive),> 100 µM (inactive),> 100 µM (inactive),> 100 µM (inactive),> 100 µM (inactive),> 100 µM (inactive),> 100 µM (inactive),> 100 µM (inactive),> 100 µM (inactive),> 100 µM (inactive),> 100 µM (inactive),> 100 µM (inactive),> 100 µM (inactive),> 100 µM (inactive),> 100 µM (inactive)
O=c1c2ncn(C3CCCCO3)c2n(-c2ccccc2)c(=S)n1-c1ccccc1 (stereo not given),18.5 µM (inactive),> 76.4 µM (inactive),14.5 µM (inactive),> 4.65 µM (inactive),10.1 µM (inactive),20.7 µM (inactive),42.4 µM (inactive),31.9 µM (inactive),11 µM (inactive),39.5 µM (inactive),31.4 µM (inactive),> 61.9 µM (inactive),45.5 µM (inactive),49.5 µM (inactive),25.9 µM (inactive),16.1 µM (inactive),> 64.4 µM (inactive),> 83 µM (inactive),45.1 µM (inactive),> 68.1 µM (inactive)
Cc1ccc(S[C@@H](C)[C@@](O)(C(N)=O)c2ccccc2)cc1,40.3 µM (inactive),40.8 µM (inactive),70.3 µM (inactive),> 10 µM (inactive),> 100 µM (inactive),> 100 µM (inactive),16.6 µM (inactive),> 100 µM (inactive),> 100 µM (inactive),13.9 µM (inactive),29.8 µM (inactive),> 100 µM (inactive),35.2 µM (inactive),44.8 µM (inactive),64.4 µM (inactive),18.5 µM (inactive),37.3 µM (inactive),7.67 µM (inactive),68.5 µM (inactive),> 100 µM (inactive)
O=C1c2cccc3cccc(c23)C2NCCCN12 (stereo not given),> 100 µM (inactive),> 100 µM (inactive),> 100 µM (inactive),71 µM (inactive),> 100 µM (inactive),> 100 µM (inactive),89.3 µM (inactive),> 100 µM (inactive),> 100 µM (inactive),35.7 µM (inactive),> 100 µM (inactive),> 100 µM (inactive),> 100 µM (inactive),95.3 µM (inactive),52.8 µM (inactive),> 100 µM (inactive),> 100 µM (inactive),37.7 µM (inactive),68.7 µM (inactive),> 100 µM (inactive)
COC(=O)/C=C\C(C#N)(C#N)/N=C/c1ccc(C)s1,15.2 µM (inactive),13.1 µM (inactive),12.4 µM (inactive),2.08 µM (inactive),21.8 µM (inactive),15 µM (inactive),1.94 µM (inactive),1.97 µM (inactive),6.82 µM (inactive),5.31 µM (inactive),2.23 µM (inactive),3.94 µM (inactive),1.32 µM (inactive),1.49 µM (inactive),16.7 µM (inactive),17.8 µM (inactive),2.29 µM (inactive),0.0847 µM (active),1.67 µM (inactive),4.28 µM (inactive)
Cc1nc2ccc(S(=O)(=O)Nc3ccccn3)cc2c(=O)n1NS(=O)(=O)c1ccccn1,> 100 µM (inactive),> 100 µM (inactive),> 100 µM (inactive),> 100 µM (inactive),> 100 µM (inactive),> 100 µM (inactive),> 100 µM (inactive),> 100 µM (inactive),> 100 µM (inactive),> 100 µM (inactive),> 100 µM (inactive),> 100 µM (inactive),> 100 µM (inactive),> 100 µM (inactive),> 100 µM (inactive),> 100 µM (inactive),> 100 µM (inactive),> 100 µM (inactive),> 100 µM (inactive),> 100 µM (inactive)
Cc1ccc(S(=O)(=O)Nn2c(C)cc3ccc(S(=O)(=O)Nc4ccccc4[N+](=O)[O-])cc3c2=O)cc1,38.9 µM (inactive),18.2 µM (inactive),> 100 µM (inactive),> 100 µM (inactive),45.3 µM (inactive),> 100 µM (inactive),> 100 µM (inactive),> 100 µM (inactive),> 100 µM (inactive),95.9 µM (inactive),> 100 µM (inactive),74.1 µM (inactive),47.4 µM (inactive),99.3 µM (inactive),40.1 µM (inactive),17.6 µM (inactive),> 100 µM (inactive),> 100 µM (inactive),> 100 µM (inactive),> 100 µM (inactive)
CCNC(=O)Nc1ccccn1,> 100 µM (inactive),> 100 µM (inactive),> 100 µM (inactive),> 100 µM (inactive),> 100 µM (inactive),> 100 µM (inactive),> 100 µM (inactive),> 100 µM (inactive),> 100 µM (inactive),> 100 µM (inactive),> 100 µM (inactive),> 100 µM (inactive),> 100 µM (inactive),> 100 µM (inactive),> 100 µM (inactive),> 100 µM (inactive),> 100 µM (inactive),> 100 µM (inactive),> 100 µM (inactive),> 100 µM (inactive)
COC(=O)C12OC3CO[Si](C(C)C)(C(C)C)O[Si](C(C)C)(C(C)C)OC3C1Oc1nc(=O)ccn12 (stereo not given),14.3 µM (inactive),15.7 µM (inactive),16.1 µM (inactive),15 µM (inactive),< 0.01 µM (active),17.3 µM (inactive),17.7 µM (inactive),17.1 µM (inactive),12 µM (inactive),16.7 µM (inactive),15.5 µM (inactive),15.8 µM (inactive),16.1 µM (inactive),16 µM (inactive),15.8 µM (inactive),16 µM (inactive),23.4 µM (inactive),17.3 µM (inactive),17.9 µM (inactive),16.7 µM (inactive)
CCOC(=O)c1cc(C2=CCNC2=O)c(-c2cc(C)no2)[nH]1,39.1 µM (inactive),59.8 µM (inactive),62.5 µM (inactive),33.2 µM (inactive),95.5 µM (inactive),31.3 µM (inactive),> 100 µM (inactive),> 100 µM (inactive),> 100 µM (inactive),59.4 µM (inactive),> 100 µM (inactive),45.6 µM (inactive),31.1 µM (inactive),70 µM (inactive),> 100 µM (inactive),29.8 µM (inactive),22.3 µM (inactive),34 µM (inactive),52.1 µM (inactive),92.5 µM (inactive)
C=C[C@@]1(C)CC2CC[C@]3(C)C(C)=CC(=O)CC3[C@]2(C)CC1O (stereo not given in full),> 100 µM (inactive),85.3 µM (inactive),> 100 µM (inactive),> 100 µM (inactive),> 100 µM (inactive),> 100 µM (inactive),> 100 µM (inactive),> 100 µM (inactive),> 100 µM (inactive),> 100 µM (inactive),> 100 µM (inactive),67.3 µM (inactive),91.4 µM (inactive),> 100 µM (inactive),> 100 µM (inactive),> 100 µM (inactive),32.7 µM (inactive),38.3 µM (inactive),> 100 µM (inactive),> 100 µM (inactive)
